Results as given in paper PMC9784018, “Rational Strategy for Designing Peptidomimetic Small Molecules Based on Cyclic Peptides Targeting Protein–Protein Interaction between CTLA-4 and B7-1” (Pharmaceuticals, 2022).
Read-outs that look alike come from different tables or passages of the source. Blank lines part the entries; values can stand above or below the compound they belong to. Positions of bridges follow the written chain, without caps; N, C: chain ends. Residues, ends and D or L forms follow the SMILES beside them. MBP = not defined here

Columns and labels:
[1] = Solubility of synthesized peptide; format: physicochemical; conditions: chemically synthesized peptide, in inhibitor screening assay
Experimental: (§1) We prepared the C4m-3127 cyclic peptide using chemical synthesis and examined its properties. First, the inhibitory activity was tested using a kit (CTLA-4:B7-1[Biotinylated] Inhibitor Screening Assay, BPS Bioscience Inc.) (Figure 5A). […] In a sequence of C4m-3127, the GG linker behind C-terminal Cys had mutated into Glu and Arg.

[2] = target: T1, interaction between CTLA-4 and B7-1 (Homo sapiens, UniProt P16410); test: CTLA-4:B7-1[Biotinylated] Inhibitor Screening Assay (BPS Bioscience kit); format: binding
T1 construct: purchased BPS Bioscience Inc
T1 sequence (P16410 36-161 limits assumed): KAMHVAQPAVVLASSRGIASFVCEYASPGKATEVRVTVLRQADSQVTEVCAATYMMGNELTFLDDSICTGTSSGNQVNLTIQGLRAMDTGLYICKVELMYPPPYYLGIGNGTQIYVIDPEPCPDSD
Experimental: as §1
A cyclic peptide with a low EC50 value was synthesized by adding glycine to the N-terminus at Toray Research Center.
(B) Flow cytometry affinity analysis.

CTLA-4 [3] = target: T2, CTLA-4 (Homo sapiens, UniProt P16410); test: ELISA-based determination of EC50 value of MBP–peptide–His-tag fusion constructs; format: binding
T2 sequence (P16410 36-223): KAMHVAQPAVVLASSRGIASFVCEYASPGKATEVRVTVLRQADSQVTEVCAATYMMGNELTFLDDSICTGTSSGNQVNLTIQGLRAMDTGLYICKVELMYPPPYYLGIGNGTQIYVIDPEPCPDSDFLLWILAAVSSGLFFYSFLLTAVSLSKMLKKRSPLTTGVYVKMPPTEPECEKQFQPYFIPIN
Experimental: Peptides with binding specificity for CTLA-4 were overexpressed as fusion proteins with MBP at the N-terminus and His-tag at the C-terminus. After BL21(DE3) E. coli cells were transformed, the fusion constructs were grown in 200 mL of 2xYT/[…] ampicillin at 37 °C until an OD600 of 0.5–0.8 was reached. Then, IPTG (0.5 mM) was added. The broth was incubated at 25 °C with shaking overnight. After the cell broth was centrifuged, the pellet was resuspended in 20 mM Tris-HCl pH 7.5/500 mM NaCl and sonicated (Bioruptor UCD-250, Sonicbio Co. Ltd., Kanagawa, Japan). The sample was centrifuged, then the supernatant was purified on Ni Sepharose^TM 6FF (Cytiva, Tokyo, Japan). The purified sample was buffer exchanged to PBS by dialysis and quantified using a kit (BCA Protein Assay Kit, Thermo Fisher Scientific, Waltham, MA, USA).
CTLA-4 (5 μg/mL) was coated onto a NUNC® Maxisoap^TM 384 well plate and incubated at 4 °C overnight. After the wells were washed twice with TBS/0.05% Tween-20, they were blocked with 100 μL of TBS/0.05% Tween-20/5% skim milk by incubating at RT for 1 h with shaking. […] The absorbance was measured at 450 nm/650 nm with a microplate reader (Infinite F200, Tecan Japan Co., Ltd., Kanagawa, Japan). The absorbance versus the concentration of MBP–peptide–His-tag fusion was found. The midpoint concentration was determined as the half-maximal effective concentration (EC50) value.

CTLA-4 [4] = target: T2, CTLA-4; test: Competitive ELISA against biotinylated C4m-3127 peptide; format: binding; conditions: competition with 30 μM biotinylated C4m-3127 peptide on immobilized CTLA-4; data not shown
Experimental: Competition experiments were performed using biotinylated C4m-3127 peptide instead of biotinylated B7-1 in the CTLA-4:B7-1[Biotinylated] inhibitor screening assay. The biotinylated C4m-3127 peptide was optimized to a concentration of 30 μM in an earlier experiment. CTLA-4 immobilized on a 384-well plate was reacted with PGF00506 in 11-point two-fold serial dilution from 1000 to 0.98 μM by assay buffer. Then, the biotinylated peptides were added to wells for competitive reaction. After washing, the residual amounts of biotinylated peptides were detected using streptavidin-HRP.

[5] = inhibition of CTLA-4:B7-1 interaction, luminescence, four-parameter logistic fit, read-out: IC50

Compound: CC[C@H](C)[C@@H]1NC(=O)[C@@H]2CCCN2C(=O)[C@H](CC(C)C)NC(=O)[C@H](Cc2ccccc2)NC(=O)[C@@H]2CCCN2C(=O)[C@H](Cc2c[nH]cn2)NC(=O)[C@H](CCSC)NC(=O)[C@@H](NC(=O)CN)CSSC[C@@H](C(=O)N[C@@H](CCC(=O)O)C(=O)N[C@@H](CCCNC(=N)N)C(=O)O)NC(=O)[C@H](Cc2ccccc2)NC(=O)[C@H](Cc2c[nH]cn2)NC(=O)[C@H](Cc2c[nH]cn2)NC(=O)[C@H](CO)NC(=O)[C@H](C(C)C)NC1=O [C4m-3127 peptide] (H-GCMHPFLPIVSHHFCER-OH; disulfide 2-15; N-terminus and C-terminus assumed)
solubility [1]: improved solubility

Compound: C4m-3127: best binder clone from affinity maturation of C4-302, random loop MHPFLPIVSHHF, expressed as MBP fusion protein ({MBP}-CMHPFLPIVSHHFCER-{His‑tag}; disulfide 1-14 (inferred); not fully specified; reading uncertain)
affinity relative to C4-302 (CTLA-4 [3]; MBP fusion protein, times greater affinity than C4-302): 50 times
EC50 (CTLA-4 [3]; purified MBP–peptide–His-tag fusion protein, ELISA on immobilized CTLA-4): 0.0747 µM
IC50 ([2]; inhibition of CTLA-4:B7-1 interaction, luminescence, four-parameter logistic fit, listed as MBP–C4m-3127 peptide–His-tag fusion protein, read-out: IC50): 1.36 µM
IC50 [2, 5]: 11.5 µM

Further lines, results first:

IC50 [2, 5]: 147 µM
Compound: CC(C)[C@H]1ON(C(=O)OCc2ccccc2)[C@H]2CN(CCc3ccccc3)C(=O)[C@H](CCCNC(=N)N)N2C1=O [PGF00452, Benzyl (3R,6S,9aS)-6-(3-guanidinopropyl)-3-isopropyl-4,7-dioxo-8-phenethylhexahydropyrazino [2,1-c][1,2,4]oxadiazine-1(6H)-carboxylate]

IC50 [2, 5]: 80 µM
IC50 ([2]; values printed in Figure 7, read-out: IC50, CTLA-4/B7-1 interaction inhibitory activity): 60 µM
Compound: N=C(N)NCCC[C@H]1C(=O)N(CCc2ccccc2)C[C@@H]2N(C(=O)OCc3ccccc3)O[C@H](CC3CCCCC3)C(=O)N21 [PGF00478, Benzyl (3R,6S,9aS)-3-(cyclohexylmethyl)-6-(3-guanidinopropyl)-4,7-dioxo-8-phenethylhexahydropyrazino [2,1-c][1,2,4]oxadiazine-1(6H)-carboxylate]

IC50 [2, 5]: 6.8 µM
inhibitory activity compared to PGF00432 ([2]; ratio of IC50 values): 43 fold
inhibitory activity compared to C4m-3127 ([2]; ratio of IC50 values, C4m-3127 synthetic peptide IC50 = 11.5 μM): 1.7 fold
IC50 (CTLA-4 [4]): 10.5 µM
Compound: N=C(N)NCCC[C@H]1C(=O)N(CCC(c2ccccc2)c2ccccc2)C[C@@H]2N(C(=O)OCc3ccccc3)O[C@H](CC3CCCCC3)C(=O)N21 [PGF00506, Benzyl (3R,6S,9aS)-3-(cyclohexylmethyl)-8-(3,3-diphenylpropyl)-6-(3-guanidinopropyl)-4,7-dioxohexahydropyrazino [2,1-c][1,2,4]oxadiazine-1(6H)-carboxylate]

IC50 [2, 5]: 294 µM
Compound: CC(C)[C@H]1ON(C(=O)OCc2ccccc2)[C@H]2CN(CCc3ccccc3)C(=O)[C@H](Cc3c[nH]cn3)N2C1=O [PGF00432, Benzyl (3R,6S,9aS)-6-((1H-imidazol-4-yl)methyl)-3-isopropyl-4,7-dioxo-8-phenethylhexahydropyrazino [2,1-c][1,2,4]oxadiazine-1(6H)-carboxylate]
